± gives the expanded uncertainty stated by the source.
Columns and labels:
[1] = for speed of sound / mass density / viscosity: 101.33 kPa, Liquid; for speed of sound: Sing-around technique in a fixed-path interferometer; for mass density: Vibrating tube method; for surface tension liquid-gas: Drop weight; for viscosity: Capillary tube (Ostwald / Ubbelohde) method
[2] = refractive index (Na D-line) (dimensionless); settings: 101.33 kPa, Liquid, Standard Abbe refractometry

CCCCn1cc[n+](C)c1.COS(=O)(=O)[O-] [1-butyl-3-methylimidazolium methyl sulfate]
Settings | mass density, [1] [kg/m3] | refractive index, [2] | speed of sound, [1] [m/s] | surface tension liquid-gas, [1] [mN/m] | viscosity, [1] [mPa·s]
278.15 K | 1225.84 ± 8.2 | – | 1708.3 ± 5.2 | – | –
283.15 K | 1222.44 ± 8.1 | 1.48351 ± 0.0011 | 1695.8 ± 5.2 | 45.9 ± 1.2 | –
288.15 K | 1219.03 ± 8.1 | 1.48213 ± 0.0011 | 1683.4 ± 5.2 | 45 ± 1.1 | –
293.15 K | 1215.62 ± 8 | 1.48076 ± 0.0011 | 1670.9 ± 5.2 | 44.1 ± 1.1 | 288.99 ± 14
298.15 K | 1212.22 ± 8 | 1.47942 ± 0.0011 | 1658.4 ± 5.2 | 43.3 ± 1.1 | 213.19 ± 9
303.15 K | 1208.81 ± 8 | 1.47805 ± 0.0011 | 1646 ± 5.2 | 42.8 ± 1.1 | 160.93 ± 6
308.15 K | 1205.41 ± 7.9 | 1.47671 ± 0.0011 | 1633.5 ± 5.2 | 42.3 ± 1.1 | 123.73 ± 4.2
313.15 K | 1202.04 ± 7.9 | 1.47536 ± 0.0011 | 1621.1 ± 5.2 | 41.8 ± 1.1 | 96.83 ± 3
318.15 K | 1198.66 ± 7.8 | 1.474 ± 0.0011 | 1608.6 ± 5.2 | – | 77.08 ± 2.2
323.15 K | 1195.34 ± 7.8 | 1.47266 ± 0.0011 | 1596.1 ± 5.2 | – | 62.22 ± 1.6
328.15 K | 1192.02 ± 7.7 | 1.47132 ± 0.0011 | 1583.7 ± 5.2 | – | –
333.15 K | 1188.73 ± 7.7 | 1.47 ± 0.0011 | 1571.2 ± 5.2 | – | 42.24 ± 1.1
338.15 K | 1185.45 ± 7.6 | 1.46864 ± 0.0011 | 1558.8 ± 5.2 | – | –
343.15 K | 1182.19 ± 7.6 | 1.46725 ± 0.0011 | 1546.3 ± 5.2 | – | 29.99 ± 0.8
